# According to patent publication US20050250837A1, “Use of C-Raf inhibitors for the treatment of neurodegenerative diseases” (priority 2002, published 2005):
# Key:
# c-fms = c-fms (Homo sapiens, UniProt P07333); conditions: Lackey et al., 2000; cited from earlier work
# [1] = test system: cerebellar granule neurons; assay: MPP+-induced cell death in cerebellar granule neurons; assay type: cell-based, rat; conditions: HK + 200 uM MPP+, different concentrations of GW5074, 24 hours
# Forkhead = Forkhead dephosphorylation in LK; assay type: cell-based, rat; conditions: data not shown
# Procedure: The best-studied anti-apoptotic pathway in neurons is the PI-3 kinase-Akt signaling pathway (D'Mello et al., 1997; Dudek et al., 1997; Miller et al, 1997a). IGF-1, a potent survival-promotic factor for granule neurons mediates its effect by activating the PI-3 kinase-Akt pathway (Datta et al., 1997; Dudek et al., 1997; D'Mello et al., 1998). […] Switching cerebellar granule neurons from serum-containing HK medium in which they are cultured and allowed to mature, to serum-free LK or HK medium, causes a rapid downregulation of Akt phosphorylation and activity, which can be prevented by IGF-1 (Kumari et al., 2001). […] The same blot was reprobed with an antibody against phospho-Gskβ. Also loaded on the gel were lysates from untreated cultures (maintained in medium containing serum and high K+) and a culture treated for 1 hour with 25 ng/ml IGF-1. […] GSK3βis a proapoptotic molecule that is activated during apoptosis in many neuronal and normeuronal systems. Under survival promoting conditions GSK3β is kept inactivated by phosphorylation, a modification that can be induced by Akt. […] Another proapoptotic molecule that is phosphorylated and inactivated by Akt is the transcription factor, Forkhead ([…] et al., 2002). […] Switching of neurons to LK medium leads to a rapid downregulation of Akt activity within 2 hours.
# JNK2 = JNK2 (Homo sapiens, UniProt P45984); assay: In vitro kinase assay, purified kinase (Upstate Kinase Profiling); assay type: biochemical; note: ATP 10 µM
# Sequence of JNK2 (P45984 whole entry, species assumed): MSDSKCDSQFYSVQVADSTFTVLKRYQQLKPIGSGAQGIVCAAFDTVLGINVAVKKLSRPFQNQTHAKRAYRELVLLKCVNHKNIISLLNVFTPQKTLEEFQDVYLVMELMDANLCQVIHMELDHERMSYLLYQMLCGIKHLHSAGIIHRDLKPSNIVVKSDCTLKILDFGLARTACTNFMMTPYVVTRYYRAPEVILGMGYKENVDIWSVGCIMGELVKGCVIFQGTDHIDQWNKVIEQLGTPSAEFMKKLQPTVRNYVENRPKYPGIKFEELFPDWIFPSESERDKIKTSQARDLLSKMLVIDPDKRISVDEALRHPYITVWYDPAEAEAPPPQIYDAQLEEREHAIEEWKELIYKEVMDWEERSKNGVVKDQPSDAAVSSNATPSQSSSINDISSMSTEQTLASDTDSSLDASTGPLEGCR
# Excerpt: (§1) (Lackey et al., 2000). […] A number of reports have implicated JNKs in the promotion of neuronal apoptosis both in vivo and in cell culture systems (Coffey et al., 2002). Although all three JNK proteins are expressed in neurons, the phosphorylation of c-jun is believed to be mediated by JNK2 or JNK3 (Bruckner et al., 2001; Bruckner and Estus, 2002; Coffey et al., 2002). […] In apoptotic neurons, JNK activation is mediated primarily by MKK7 (Eilers et al., 1998; Trotter et al., 2002).
# (§2) In general, in vitro kinase assays were performed using purified kinase and synthetic substrates under standard conditions using the Kinase Profiling service of Upstate Biotechnology. Briefly, for each assay 5-10 mU of purified kinase was used. […] Kinase activity was quantified by measuring ^33P incorporation by spotting an aliquot on P30 filters, washing in 50 mM phosphoric acid and scintillation counting. The buffer composition for C-Raf, JNK1, JNK2, JNK3, MEK1, MKK6, MKK7 was 50 mM Tris pH7.5, 0.1 mM EGTA, 10 mM Mg acetate and [γ-^33P-ATP]. The peptide substrates used were as follows: For C-Raf, 0.66 mg/ml MBP; for cdks, 0.1 mg/ml histone H1; for JNKs, 3 uM ATF2; for MEK1, 1 uM MAPK2; for MKK6, 1 uM of SAPK2a and for MKK7, 2 uM JNK1α.
# CDK2/cyclinE = CDK2/cyclinE (Homo sapiens, UniProt P24941); assay: as above; assay type: biochemical; note: ATP 10 µM
# Excerpt: as §1, §2
# MEK1 = MEK1 (Homo sapiens, UniProt Q02750); assay: as above; assay type: biochemical; note: ATP 10 µM
# Sequence of MEK1 (Q02750 whole entry, species assumed): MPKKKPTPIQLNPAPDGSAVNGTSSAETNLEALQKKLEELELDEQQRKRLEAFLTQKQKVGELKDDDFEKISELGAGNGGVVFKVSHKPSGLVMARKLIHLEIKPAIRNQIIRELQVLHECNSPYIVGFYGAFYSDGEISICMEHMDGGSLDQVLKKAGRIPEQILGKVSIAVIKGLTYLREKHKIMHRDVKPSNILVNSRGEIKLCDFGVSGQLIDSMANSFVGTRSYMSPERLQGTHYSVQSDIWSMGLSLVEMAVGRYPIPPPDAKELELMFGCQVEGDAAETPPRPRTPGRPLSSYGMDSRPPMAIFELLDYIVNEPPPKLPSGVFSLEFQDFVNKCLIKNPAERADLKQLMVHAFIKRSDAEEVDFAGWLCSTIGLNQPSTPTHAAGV
# Excerpt: as §1, §2
# JNK1 = JNK1 (Homo sapiens, UniProt P45983); assay: as above; assay type: biochemical; note: ATP 10 µM
# Sequence of JNK1 (P45983 whole entry, species assumed): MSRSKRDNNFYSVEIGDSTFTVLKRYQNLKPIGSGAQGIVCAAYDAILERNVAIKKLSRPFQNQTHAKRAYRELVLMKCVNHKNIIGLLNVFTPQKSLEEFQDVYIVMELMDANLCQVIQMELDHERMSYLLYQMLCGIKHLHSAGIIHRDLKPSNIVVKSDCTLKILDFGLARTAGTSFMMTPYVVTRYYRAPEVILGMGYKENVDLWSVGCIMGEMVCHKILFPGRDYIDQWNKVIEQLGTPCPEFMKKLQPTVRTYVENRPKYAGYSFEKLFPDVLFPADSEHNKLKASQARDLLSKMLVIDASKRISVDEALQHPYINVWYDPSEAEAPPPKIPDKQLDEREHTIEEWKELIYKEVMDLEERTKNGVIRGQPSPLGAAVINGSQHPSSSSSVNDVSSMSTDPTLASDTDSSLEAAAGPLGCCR
# Excerpt: as §1, §2
# JNK3 = assay: as above; assay type: biochemical; conditions: 1 uM GW5074, ATP 10 uM; percentage of control without GW5074, mean +/- SD
# Excerpt: as §1, §2
# MKK6 = MKK6 (Homo sapiens, UniProt P52564); assay: as above; assay type: biochemical; note: ATP 10 µM
# Sequence of MKK6 (P52564 whole entry, species assumed): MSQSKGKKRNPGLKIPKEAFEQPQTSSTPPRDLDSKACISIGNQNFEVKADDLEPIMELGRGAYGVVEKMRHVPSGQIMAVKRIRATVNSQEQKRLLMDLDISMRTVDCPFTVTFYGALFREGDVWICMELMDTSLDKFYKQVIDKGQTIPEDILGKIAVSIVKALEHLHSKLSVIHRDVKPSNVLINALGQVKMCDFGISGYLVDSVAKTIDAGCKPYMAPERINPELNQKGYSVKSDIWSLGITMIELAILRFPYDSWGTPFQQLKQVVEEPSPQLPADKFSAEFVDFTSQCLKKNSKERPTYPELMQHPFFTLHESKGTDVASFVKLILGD
# Excerpt: as §1, §2
# CDK5/p35 = CDK5/p35 (Homo sapiens, UniProt Q00535); assay: as above; assay type: biochemical; note: ATP 10 µM
# Sequence of CDK5/p35 (Q00535 whole entry, species assumed): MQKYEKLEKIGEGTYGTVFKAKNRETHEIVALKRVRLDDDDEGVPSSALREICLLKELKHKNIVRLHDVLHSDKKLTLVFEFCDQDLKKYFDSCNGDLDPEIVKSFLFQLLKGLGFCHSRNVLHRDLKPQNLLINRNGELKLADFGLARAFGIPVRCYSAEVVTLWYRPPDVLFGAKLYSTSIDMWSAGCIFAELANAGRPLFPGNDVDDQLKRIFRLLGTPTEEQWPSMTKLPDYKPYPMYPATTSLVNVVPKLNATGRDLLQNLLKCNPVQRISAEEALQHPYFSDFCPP
# Sequence of CDK5/p35 (Q15078 whole entry partner, species assumed): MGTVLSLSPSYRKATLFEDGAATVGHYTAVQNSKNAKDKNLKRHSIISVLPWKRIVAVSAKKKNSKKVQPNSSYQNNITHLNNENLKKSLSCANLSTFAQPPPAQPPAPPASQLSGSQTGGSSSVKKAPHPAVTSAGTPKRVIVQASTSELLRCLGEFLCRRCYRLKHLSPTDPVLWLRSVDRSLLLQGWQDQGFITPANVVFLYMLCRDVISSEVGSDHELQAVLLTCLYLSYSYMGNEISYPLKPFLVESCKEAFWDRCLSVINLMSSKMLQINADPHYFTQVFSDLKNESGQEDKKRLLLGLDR
# Excerpt: as §1, §2
# CDK2/cyclinA = CDK2/cyclinA (Homo sapiens, UniProt P24941); assay: as above; assay type: biochemical; note: ATP 10 µM
# Excerpt: as §1, §2
# GSK3β = GSK3β (Homo sapiens, UniProt P49841); assay: as above; assay type: biochemical; note: ATP 10 µM
# Sequence of GSK3β (P49841 whole entry, species assumed): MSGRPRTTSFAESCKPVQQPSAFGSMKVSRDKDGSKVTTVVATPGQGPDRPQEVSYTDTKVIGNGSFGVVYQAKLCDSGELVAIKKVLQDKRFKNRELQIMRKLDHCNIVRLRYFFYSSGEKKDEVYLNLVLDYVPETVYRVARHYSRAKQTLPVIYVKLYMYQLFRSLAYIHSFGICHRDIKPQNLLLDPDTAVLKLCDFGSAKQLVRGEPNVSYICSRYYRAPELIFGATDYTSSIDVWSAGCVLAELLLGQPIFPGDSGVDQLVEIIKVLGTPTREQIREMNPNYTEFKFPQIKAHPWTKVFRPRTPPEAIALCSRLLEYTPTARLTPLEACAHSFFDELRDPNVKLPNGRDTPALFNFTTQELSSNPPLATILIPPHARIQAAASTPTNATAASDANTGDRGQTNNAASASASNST
# Excerpt: as §1, §2
# CDK6/cyclinD3 = CDK6/cyclinD3 (Homo sapiens, UniProt Q00534); assay: as above; assay type: biochemical; note: ATP 10 µM
# Sequence of CDK6/cyclinD3 (Q00534 whole entry, species assumed): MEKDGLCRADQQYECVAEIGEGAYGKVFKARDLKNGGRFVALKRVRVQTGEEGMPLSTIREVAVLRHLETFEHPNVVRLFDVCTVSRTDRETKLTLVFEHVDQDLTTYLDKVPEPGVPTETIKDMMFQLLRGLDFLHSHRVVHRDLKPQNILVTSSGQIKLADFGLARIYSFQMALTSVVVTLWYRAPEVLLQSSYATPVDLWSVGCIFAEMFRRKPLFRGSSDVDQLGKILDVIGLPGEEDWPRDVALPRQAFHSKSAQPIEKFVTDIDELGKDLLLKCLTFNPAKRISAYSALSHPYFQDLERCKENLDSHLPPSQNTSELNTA
# Sequence of CDK6/cyclinD3 (P30281 whole entry partner, species assumed): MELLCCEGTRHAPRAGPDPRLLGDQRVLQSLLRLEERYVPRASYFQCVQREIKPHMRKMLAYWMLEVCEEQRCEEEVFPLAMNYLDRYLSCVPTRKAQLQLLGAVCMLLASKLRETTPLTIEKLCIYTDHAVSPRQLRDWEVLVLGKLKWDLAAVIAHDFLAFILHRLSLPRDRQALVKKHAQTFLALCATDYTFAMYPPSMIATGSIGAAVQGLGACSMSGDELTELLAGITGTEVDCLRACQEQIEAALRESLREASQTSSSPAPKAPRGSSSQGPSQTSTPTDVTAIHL
# Excerpt: as §1, §2
# MKK7 = MKK7 (Homo sapiens, UniProt O14733); assay: as above; assay type: biochemical; note: ATP 10 µM
# Sequence of MKK7 (O14733 whole entry, species assumed): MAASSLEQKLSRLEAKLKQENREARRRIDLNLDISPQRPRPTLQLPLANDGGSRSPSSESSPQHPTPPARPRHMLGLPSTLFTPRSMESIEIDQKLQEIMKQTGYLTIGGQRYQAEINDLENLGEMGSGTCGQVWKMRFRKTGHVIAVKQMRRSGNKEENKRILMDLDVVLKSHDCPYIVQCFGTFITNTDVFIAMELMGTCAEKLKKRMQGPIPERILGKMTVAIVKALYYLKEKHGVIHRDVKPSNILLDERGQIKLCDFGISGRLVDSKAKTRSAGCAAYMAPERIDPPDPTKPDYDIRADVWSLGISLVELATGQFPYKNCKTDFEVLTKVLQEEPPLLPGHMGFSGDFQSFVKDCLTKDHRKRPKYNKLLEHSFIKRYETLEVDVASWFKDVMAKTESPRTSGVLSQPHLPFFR
# Excerpt: as §1, §2
# CDK1/cyclinB = CDK1/cyclinB (Homo sapiens, UniProt P06493); assay: as above; assay type: biochemical; note: ATP 10 µM
# Excerpt: as §1, §2
# [2] = test system: cerebellar granule neurons; assay: Apoptosis of neurons transfected with dominant-negative B-Raf or LacZ in LK plus GW5074; assay type: cell-based, rat; conditions: LK + 1 uM GW5074, 24 hours
# Procedure: A dominant-negative […] expression vector, pSRa GST B-Raf S728A (full length human B-Raf with Serine to Alanine mutation at position 728) was gifted to us by Dr. Angus M. MacNicol, University of Arkansas for Medical Sciences, Little Rock, Ark. Neuronal cultures were transfected with CMV-LacZ or the dominant-negative B-Raf construct using the calcium phosphate method 5 days after plating of the cultures. […] The proportion of transfected neurons that were apoptotic was quantified 24 hours later.
# [3] = test system: cerebellar granule neurons; assay: Methylmercury-induced cell death in cerebellar granule neurons; assay type: cell-based, rat; conditions: HK + 0.5 uM methylmercury, different concentrations of GW5074, 24 hours
# Sequence of c-fms (P07333 20-972): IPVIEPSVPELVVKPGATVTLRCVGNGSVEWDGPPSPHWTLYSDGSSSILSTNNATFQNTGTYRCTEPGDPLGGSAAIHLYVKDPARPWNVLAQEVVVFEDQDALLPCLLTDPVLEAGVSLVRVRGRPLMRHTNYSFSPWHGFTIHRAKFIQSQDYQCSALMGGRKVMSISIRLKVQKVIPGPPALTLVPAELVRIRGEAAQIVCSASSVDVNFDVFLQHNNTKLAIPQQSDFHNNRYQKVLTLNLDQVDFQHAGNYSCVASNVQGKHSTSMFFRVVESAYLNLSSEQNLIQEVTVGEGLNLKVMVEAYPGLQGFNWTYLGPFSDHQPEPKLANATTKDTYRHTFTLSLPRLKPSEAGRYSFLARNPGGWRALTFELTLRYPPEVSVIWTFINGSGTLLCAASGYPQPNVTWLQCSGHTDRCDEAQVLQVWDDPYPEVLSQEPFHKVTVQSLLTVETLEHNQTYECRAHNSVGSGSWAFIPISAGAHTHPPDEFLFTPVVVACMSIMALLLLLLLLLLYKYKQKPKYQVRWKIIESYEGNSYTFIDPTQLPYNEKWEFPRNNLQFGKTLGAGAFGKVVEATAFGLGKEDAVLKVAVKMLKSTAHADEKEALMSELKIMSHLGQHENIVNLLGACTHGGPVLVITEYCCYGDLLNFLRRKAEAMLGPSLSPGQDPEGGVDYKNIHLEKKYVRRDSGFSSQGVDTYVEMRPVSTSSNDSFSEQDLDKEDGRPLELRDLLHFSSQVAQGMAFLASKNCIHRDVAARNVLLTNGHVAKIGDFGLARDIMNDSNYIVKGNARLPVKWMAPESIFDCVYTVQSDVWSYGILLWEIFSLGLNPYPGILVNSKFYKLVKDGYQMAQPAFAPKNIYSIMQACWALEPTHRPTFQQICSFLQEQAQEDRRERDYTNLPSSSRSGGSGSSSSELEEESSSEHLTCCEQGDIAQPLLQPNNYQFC
structure (smiles),measurement,setting,value
"O=C1Nc2ccc(I)cc2C1=Cc1cc(Br)c(O)c(Br)c1 [GW5074, 5-Iodo-3-[(3,5-dibromo-4-hydroxyphenyl)methylene]-2-indolinone]",effect on activity of c-fms,c-fms,no effect
same,MPP+-induced cell death,[1],reduced MPP^+-induced cell death
same,dephosphorylation of Forkhead in LK,Forkhead,reduces the dephosphorylation
same,activity at 1 µM,JNK2,91 ± 4%
same,activity at 1 µM,CDK2/cyclinE,100 ± 5%
same,activity at 1 µM,MEK1,94 ± 4%
same,activity at 1 µM,JNK1,94 ± 3%
same,% ACTIVITY JNK3,JNK3,89 ± 9%
same,activity at 1 µM,MKK6,91 ± 4%
same,activity at 1 µM,CDK5/p35,94 ± 2%
same,activity at 1 µM,CDK2/cyclinA,99%
same,activity at 1 µM,GSK3β,81 ± 6%
same,activity at 1 µM,CDK6/cyclinD3,98 ± 1%
same,activity at 1 µM,MKK7,104 ± 8%
same,activity at 1 µM,CDK1/cyclinB,90 ± 12%
same,death of neurons,[2]; LacZ control,less than 10%
same,death of infected neurons,"[2]; dominant-negative B-Raf, data not shown",80%
same,methylmercury-induced cell death,[3],reduced methylmercury-induced cell death
